Results reported in patent publication US20260028352A1, “MACROCYCLIC IMIDAZO [1,2-B] PYRIDAZINE DERIVATIVE, PREPARATION METHOD THEREFOR, AND USE THEREOF” (SUZHOU LANGRUI BIOPHARMACEUTICAL CO., LTD., priority 2022, published 2026).
Where two headings read alike, the source gives them in different places. Each block holds one compound with its values, some of them ahead of it.

How the values were obtained:
[1] = ether bond
TRKA^WT kinase = TRKA^WT kinase (Homo sapiens (Human), UniProt P04629); experiment: Inhibitory activity against TRKA WT kinase (Caliper mobility shift); assay type: biochemical; conditions: in vitro kinase assay
TRKA^WT kinase, sequence (P04629 33-796): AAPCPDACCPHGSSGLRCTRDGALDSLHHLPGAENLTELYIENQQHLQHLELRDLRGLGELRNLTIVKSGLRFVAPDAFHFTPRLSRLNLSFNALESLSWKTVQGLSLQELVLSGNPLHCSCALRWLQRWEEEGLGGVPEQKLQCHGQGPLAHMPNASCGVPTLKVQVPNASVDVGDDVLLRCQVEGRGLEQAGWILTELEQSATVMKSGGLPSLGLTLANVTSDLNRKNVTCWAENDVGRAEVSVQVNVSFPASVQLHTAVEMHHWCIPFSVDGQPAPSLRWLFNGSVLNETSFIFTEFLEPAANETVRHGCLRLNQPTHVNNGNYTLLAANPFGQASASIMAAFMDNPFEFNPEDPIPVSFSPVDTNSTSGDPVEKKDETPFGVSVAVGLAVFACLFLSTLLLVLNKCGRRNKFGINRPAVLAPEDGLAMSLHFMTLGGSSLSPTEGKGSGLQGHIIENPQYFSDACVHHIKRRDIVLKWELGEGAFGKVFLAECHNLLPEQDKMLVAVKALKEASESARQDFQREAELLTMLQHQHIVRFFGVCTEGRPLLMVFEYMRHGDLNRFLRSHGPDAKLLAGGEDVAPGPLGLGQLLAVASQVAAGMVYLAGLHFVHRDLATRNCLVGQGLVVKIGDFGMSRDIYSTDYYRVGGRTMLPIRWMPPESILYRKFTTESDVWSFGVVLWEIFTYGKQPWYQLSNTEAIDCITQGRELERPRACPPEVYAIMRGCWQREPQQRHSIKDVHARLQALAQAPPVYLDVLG
How it was run: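 Kinase preincubated 10 min at room temperature with compound (10-point 3-fold series from 1000 nM), then reaction started with ATP and Kinase Substrate 22. Substrate conversion read by Caliper mobility shift; IC50 from variable-slope log(inhibitor)–response fit of % inhibition versus no-enzyme and no-compound controls.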

TRKA^F589L kinase = TRKA^F589L kinase (Homo sapiens (Human), UniProt P04629, F589L); experiment: Inhibitory activity against TRKA(F589L) kinase (Caliper mobility shift); assay type: biochemical; conditions: in vitro kinase assay
TRKA^F589L kinase, sequence (P04629 33-796 F589L): as the sequence (P04629 33-796) above, with F557L counted along it
Protocol: Kinase Assay Process: 1× Kinase buffer was prepared. […] The compounds were serially diluted into 10 concentrations ([…], 0.15, and 0.05 nM) using a Precision 3-fold dilution method. By using the Echo550 liquid handler, 250 nL of the 100-fold final concentration compound was transferred to an OptiPlate-384F plate. a 2.5× final concentration kinase solution was prepared using 1× Kinase buffer. 10 μL of the 2.5× final concentration kinase solution was added to the compound wells and the positive control wells, and 10 μL of 1× Kinase buffer was added to the negative control wells. The plate was centrifuged at 1000 rpm for 30 seconds, vortexed for mixing, and then incubated at room temperature for 10 minutes. A mixture of 5/3× final concentration of ATP and Kinase Substrate 22 was prepared using 1× Kinase buffer. 15 μL of the mixture of the 5/3× final concentration ATP and the substrate was added to initiate the reaction, the 384-well plate was centrifuged at 1000 rpm for 30 seconds, vortexed for mixing, and incubated at room temperature for the required time. 30 μL of the termination solution was added to stop the kinase reaction, the plate was centrifuged at 1000 rpm for 30 seconds, and vortexed for mixing. The conversion rate was measured using the Caliper EZ Reader.
Data Analysis: the inhibition rate was calculated as follows:
% Inhibition=(Conversion %_max−conversion %_sample)÷(Conversion %_max−conversion %_min)×100
Conversion %_sample is the conversion rate reading for the sample; Conversion %_min is the average value of the negative control wells, representing the conversion rate for wells without enzyme activity: Conversion %_max is the average value of the positive control wells, representing the conversion rate for wells without compound inhibition. A dose-response curve was fitted using the log concentration of the compound as the X-axis and the percentage inhibition as the Y-axis. The log(inhibitor) vs. response-variable slope of the GraphPad Prism 5 software was used to fit the dose-response curve, and the IC50 value for each compound was obtained. The calculation formula is:
Y=Bottom+(Top−Bottom)/(1+10^((Log IC50−X)*HillSlope)).
wherein X represents the concentration of the compound to be tested; Y represents the inhibition rate at the concentration X: Top refers to the maximum response: Bottom refers to the baseline response; HillSlope refers to the slope of the curve (i.e., the gradient).

[2] = system: Ba/F3-TPM3-NTRK1-G667C cells; experiment: Growth inhibition of Ba/F3-TPM3-NTRK1-G667C cells (Cell Titer-Glo); assay type: cell-based; conditions: for IC50: 72 hours, CTG, read-out: inhibitory activity IC50 Ba/F3-TPM3-NTRK1-G667C
How it was run: (§1)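 Ba/F3 cells were exposed for 72 hours to serially DMSO-diluted compound at a top final concentration of 10 μM. Viability was read by Cell Titer-Glo luminescence after the plate equilibrated 30 min at room temperature and was then shaken 1 hour in the dark at room temperature.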

[3] = system: Ba/F3-TPM3-NTRK1-G595R cells; experiment: Growth inhibition of Ba/F3-TPM3-NTRK1-G595R cells (Cell Titer-Glo); assay type: cell-based; conditions: 72 hours, CTG; read-out: inhibitory activity IC50 Ba/F3-TPM3-NTRK1-G595R
How it was run: as §1

[4] = system: Ba/F3-TPM3-NTRK1-WT cells; experiment: Growth inhibition of Ba/F3-TPM3-NTRK1-WT cells (Cell Titer-Glo); assay type: cell-based; conditions: 72 hours, CTG; read-out: inhibitory activity IC50 Ba/F3-TPM3-NTRK1-WT
How it was run: as §1

[5] = system: Ba/F3-TPM3-NTRK1-WT subcutaneous xenograft; experiment: Efficacy in Ba/F3-TPM3-NTRK1-WT subcutaneous xenograft tumor model; assay type: in vivo, NOD-SCID mice
Protocol: Cell culture: Ba/F3-TPM3-NTRK1-WT cells were cultured in RPMI 1640 medium containing 10% FBS. Ba/F3-TPM3-NTRK1-WT cells in logarithmic growth phase were collected, the required total number of cells was calculated, and the cells were resuspended in a suitable volume of PBS mixture (PBS:Matrigel=1:1 (v/v)) with a cell suspension concentration of 5×106/0.1 mL for subcutaneous inoculation on the right side of NOD-SCID mice.
Method: On Day 0, all animals were subcutaneously inoculated with 0.1 mL (5×10^6 Ba/F3-TPM3-NTRK1-WT cells) of cell suspension (PBS:Matrigel=1:1, VN) on the right back. After the tumor growed to an average volume of 178.3 mm3, the mice were grouped and administrated. The average tumor volume of the enrolled animals is 178.3 mm^3. The mice were divided into two groups. Group-1 (Vehicle) and Group-2 (10 mg/kg, I-52). Each group consisted of 6 animals. All groups were administered orally by gavage with a frequency of BID, for a total of 29 days.
(§2) Tumor volume inhibition rate TGITV (%): TGI %=(1−ΔT/ΔC)×100%, wherein ΔC is the tumor volume Ct−C0 of the control group, C0 is the average tumor volume of the control group at the time of grouping, Ct is the average tumor volume of the control group after treatment, ΔT is the tumor volume Tt−T0 of the treatment group, T0 is the average tumor volume of the […] after treatment.
Pharmacological activity was evaluated based on tumor suppression rate (TGITV), and tolerance was evaluated based on changes in animal weight and mortality.

[6] = system: Ba/F3-TPM3-NTRK1-G667C subcutaneous xenograft; experiment: Efficacy in Ba/F3-TPM3-NTRK1-G667C subcutaneous xenograft tumor model; assay type: in vivo, NOD-SCID mice; conditions: 10 mg/kg oral BID
Protocol: Cell Culture: Ba/F3-TPM3-NTRK1-G667C cells were cultured in RPMI 1640 medium containing 10% FBS. Log-phase cells were collected, and the total number of cells required was calculated. Cells were resuspended in an appropriate volume of PBS mixture solution (PBS:Matrigel=1:1, v/v) at a concentration of 5×10^6 cells/0.1 mL for subcutaneous inoculation into the right flank of NOD-SCID mice.
Method: at Day 0, all animals were subcutaneously inoculated with 0.1 mL (5×10^6 cells) of Ba/F3-TPM3-NTRK1-G667C cell suspension (PBS:Matrigel=1:1, v/v) on the right flank. When the tumors reached an average volume of 197.2 mm^3, dosing and grouping began. […] The animals were divided into two groups: Group 1: Vehicle control; Group 2: 10 mg/kg of compound 1-52. Each group contained six mice. All groups were administered orally via gavage twice daily (BID) for 29 days.
as §2, with “Tumor Volume Inhibition Rate TGITV(%):” for “Tumor volume inhibition rate TGITV (%):”, “TGI %=(1−ΔT/ΔC)×100%; Where:” for “TGI %=(1−ΔT/ΔC)×100%, wherein”, “group, To” for “group, T0”
Pharmacological activity was evacuated based on tumor suppression rate (TGITV), and tolerance was assessed based on changes in animal weight and mortality.

IC50 (TRKA^WT kinase): 2.57 nM | IC50 (TRKA^F589L kinase): 5.4 nM | IC50 [2]: 91.2 nM | IC50 [3]: 72.2 nM | IC50 [4]: 3.66 nM
Compound: CC1Nc2ccc3ncc(n3n2)-c2cc(ccn2)COc2ccc(F)cc21 (centres unmarked) [Example I-1, (E)-5^4-fluoro-6-methyl-4-oxa-7-aza-1(3,6)-imidazo[1,2-b]pyridazina-2(2,4)-pyridina-5(1,2)-benzenacycloheptaphane]
ring closure, isolated yield ([1]; from CC(Nc1ccc2ncc(-c3cc(CO)ccn3)n2n1)c1cc(F)ccc1O, 13-membered ring, SOCl2, K2CO3, DCM/DMF, 15.2 mM, 90.0 °C, 2.0 h, 2 steps): 11.3%

IC50 (TRKA^WT kinase): 2.59 nM | IC50 (TRKA^F589L kinase): 6.2 nM | IC50 [2]: 32.5 nM | IC50 [3]: 245 nM | IC50 [4]: 24.8 nM
Compound: CC1Nc2ccc3ncc(n3n2)-c2cc(ccn2)COc2c(F)cc(F)cc21 (centres unmarked) [Example I-2, (E)-5^4,5^6-difluoro-6-methyl-4-oxa-7-aza-1(3,6)-imidazo[1,2-b]pyridazine-2(2,4)-pyridina-5(1,2)-benzenacycloheptaphane]
ring closure, isolated yield ([1]; from CC(Nc1ccc2ncc(-c3cc(CO)ccn3)n2n1)c1cc(F)cc(F)c1O, 13-membered ring, SOCl2, K2CO3, DCM/DMF, 15.2 mM, 90.0 °C, 1.5 h, 2 steps): 11.2% | inhibitory ability compared with TPX-0005 ([2]; comparison in words): stronger than that of compound TPX-0005

IC50 (TRKA^WT kinase): < 3 nM | IC50 (TRKA^F589L kinase): 5.8 nM | IC50 [2]: < 100 nM
Compound: CC1Nc2ccc3ncc(n3n2)-c2cc(ccn2)COc2ncccc21 (centres unmarked) [Example I-4, (E)-6-methyl-4-oxa-7-aza-1(3,6)-imidazo[1,2-b]pyridazina-2(2,4), 5(2,3)-dipyridinacycloheptaphane]
ring closure, isolated yield ([1]; from CC(Nc1ccc2ncc(-c3cc(CO)ccn3)n2n1)c1cccnc1O, 13-membered ring, SOCl2, K2CO3, DCM/DMF, 22.0 mM, 90.0 °C, 2.0 h, 2 steps): 30.2%

IC50 [2]: < 100 nM
Compound: CC1Nc2ccc3ncc(n3n2)-c2cc(ccn2)OCc2ncc(F)cc21 (centres unmarked) [Example I-12, (E)-5^5-fluoro-6-methyl-3-oxa-7-aza-1(3,6)-imidazo[1,2-b]pyridazina-2(2,4), 5(2,3)-dipyridinacycloheptaphane]
ring closure, isolated yield ([1]; from CC(Nc1ccc2ncc(-c3cc(O)ccn3)n2n1)c1cc(F)cnc1CO, 13-membered ring, SOCl2, then K2CO3, DCM/DMF, then DMF (DCM evaporated), 15.7 mM, 90.0 °C, 2.0 h, 2 steps): 22.6%

The next lines start with the compound.

Compound: CC1Nc2ccc3ncc(n3n2)-c2cc(ccn2)COc2ccccc21 (centres unmarked) [Example I-3, (E)-6-methyl-4-oxa-7-aza-1(3,6)-imidazo[1,2-b]pyridazine-2(2,4)-pyridine-5(1,2)-benzenacycloheptaphane]
ring closure, isolated yield ([1]; from CC(Nc1ccc2ncc(-c3cc(CO)ccn3)n2n1)c1ccccc1O, 13-membered ring, SOCl2, K2CO3, DCM/DMF, 11.0 mM, 90.0 °C, 2.0 h, 2 steps): 39.2% | IC50 (TRKA^WT kinase): 5.9 nM | IC50 (TRKA^F589L kinase): 7.1 nM | IC50 [2]: 526 nM | IC50 [3]: 527 nM | IC50 [4]: 17 nM

Compound: Fc1cnc2c(c1)[C@H]1C[C@H](F)CN1c1ccc3ncc(n3n1)-c1cc(ccn1)CO2 [Example I-52, (14bR,16S,E)-13,16-difluoro-14b,15,16,17-tetrahydro-9H-1,19-etheno-4,8-(metheno)imidazo[1,5-h]pyrido[2,3-b]pyrrolo[2,1-d][1]oxa[5,7,8,11]tetraazacyclopentadecine]
IC50 [2]: 0.88 nM | IC50 [3]: 0.3 nM | IC50 [4]: 0.02 nM | Average Tumor Volume ([5]; Day 4, 10 mg/kg oral BID): 182.5 mm^3 | Average Tumor Volume ([5]; Day 6, 10 mg/kg oral BID): 192.7 mm^3 | Average Tumor Volume ([5]; Day 8, 10 mg/kg oral BID): 176.5 mm^3 | Average Tumor Volume ([5]; Day 10, 10 mg/kg oral BID): 146.3 mm^3 | Average Tumor Volume ([5]; Day 12, 10 mg/kg oral BID): 113.1 mm^3 | Average Tumor Volume ([5]; Day 14, 10 mg/kg oral BID): 74.4 mm^3 | Average Tumor Volume ([5]; Day 15, 10 mg/kg oral BID): 67.9 mm^3 | Average Tumor Volume ([5]; Day 17, 10 mg/kg oral BID): 60.1 mm^3 | Average Tumor Volume ([5]; Day 19, 10 mg/kg oral BID): 32.8 mm^3 | Average Tumor Volume ([5]; Day 21, 10 mg/kg oral BID): 0.0 mm^3 | Average Tumor Volume ([5]; Day 23, 10 mg/kg oral BID): 0.0 mm^3 | Average Tumor Volume ([5]; Day 25, 10 mg/kg oral BID): 0.0 mm^3 | Average Tumor Volume ([5]; Day 27, 10 mg/kg oral BID): 0.0 mm^3 | TGITV ([5]; Day 29, 10 mg/kg oral BID): 112% | Tumor Regression Rate ([5]; Day 29, 10 mg/kg oral BID): 100% | Tumor Volume (average) ([5]; Day 29, 10 mg/kg oral BID): 0.0 mm^3 | Average Tumor Volume ([5]; Day 29, 10 mg/kg oral BID (Table 7)): 0.0 mm^3 | Average Body Weight ([6]; Day 2): 19.1 g | Average Body Weight ([6]; Day 7): 20.9 g | Average Body Weight ([6]; Day 9): 21.0 g | Average Body Weight ([6]; Day 11): 21.8 g | Average Body Weight ([6]; Day 13): 22.0 g | Average Body Weight ([6]; Day 15): 22.8 g | Average Body Weight ([6]; Day 17): 23.0 g | Average Body Weight ([6]; Day 19): 23.7 g | Average Body Weight ([6]; Day 21): 23.3 g | Average Body Weight ([6]; Day 23): 24.3 g | Average Body Weight ([6]; Day 25): 24.7 g | Average Body Weight ([6]; Day 27): 25.3 g | Average Body Weight ([6]; Day 29): 24.6 g | Relative Tumor Volume (average) ([6]; Day 29): 308.6% | TGITV ([6]; Day 29): 84% | Tumor Volume (average) ([6]; Day 29): 636.5 mm^3

Compound: (E)-4-methyl-6-oxa-3-aza-2(3,6)-imidazo [1,2-b]pyridazina-1(2,4)-pyridina-5(1,2)-benzenacyclooctaphane
ring closure, isolated yield ([1]; 14-membered ring, PPh3/DIAD, THF, 15.8 mM, 60.0 °C): 18.4%
